Assay results as given in patent US11834469B2, “AMP-activated protein kinase activating compounds and uses thereof” (Skylark Bioscience LLC, priority 2018, dated 2023).

Tested on: HEK293 cells
Assay: HEK293 Cytotoxicity Assay (CellTiterGlo, CC50)
Format: cell-based, human
Source text: Some exemplary assays and examples for assessing therapeutic efficacy, e.g., anticancer effects, of exemplary compounds of the invention are described herein or are well known in the art. HEK293 is a human kidney cell line, and efficacy on HEK293 is considered to be predictive of usefulness for therapeutic treatment.
HEK293 cells were obtained from American Type Culture Collection (ATCC) (Rockville Md.). Cells were maintained in Dulbecco's modified Eagle's medium (DMEM) (Invitrogen, Carlsbad, Calif.) with 10% fetal bovine serum (FBS), 10 mM HEPES and 1 mM sodium pyruvate. Cells were grown at 37° C. in a humidified incubator with a gas phase of 5% CO2. Cells were grown for 24 hours in a Tripleflask (NUNC) to −95% confluence and then resuspended for dispensing at 125,000 cells/mL of DMEM, 10% FBS, 10 mM Hepes and 1 mM sodium pyruvate.
HEK293 cells were seeded in 96 well microtiter plates at 10000 cells/well. After 24 hours of incubation an equal volume of fresh media containing test compounds at given concentrations was added. Plates were then incubated and cells were allowed to proliferate for 48 hours at 37° C., 95% humidity, and 5% CO2. […] A solution of Promega CellTiterGlo (100 microliters) was added by Thermo Combi and the plates were allowed to sit for 10 minutes before reading on a Perkin-Elmer EnVision with US LUM settings for 0.1 sec per well. […]

SMILES: COP(=O)(OC)OC[C@H]1O[C@@H](n2cnc(C(N)=O)c2N)[C@H](O)[C@@H]1O [SB00024]
- activity on HEK293 cells (CC50, 50% cytotoxic concentration) (at 500 uM, 48 hours with compound): inactive

SMILES: NC(=O)c1ncn([C@@H]2O[C@H](COP(=O)(O)Oc3ccc([N+](=O)[O-])cc3)[C@@H](O)[C@H]2O)c1N [SB00039]
- potency relative to AICAR in HEK293 assay (HEK293 cells, times the potency of AICAR): roughly 100 times
